What was measured:
Type in all cases: cell-based
human TLR9 = target: T1, human TLR9 (Homo sapiens, UniProt Q9NR96); test: TLR9 inhibition reporter assay (HEK-Blue cells, SEAP reporter, ODN2006 stimulation); conditions: HEK-Blue cells overexpressing human TLR9, SEAP reporter, ODN2006 5 nM
T1 construct: host or cells: HEK-Blue cells
T1 sequence (Q9NR96 26-1032): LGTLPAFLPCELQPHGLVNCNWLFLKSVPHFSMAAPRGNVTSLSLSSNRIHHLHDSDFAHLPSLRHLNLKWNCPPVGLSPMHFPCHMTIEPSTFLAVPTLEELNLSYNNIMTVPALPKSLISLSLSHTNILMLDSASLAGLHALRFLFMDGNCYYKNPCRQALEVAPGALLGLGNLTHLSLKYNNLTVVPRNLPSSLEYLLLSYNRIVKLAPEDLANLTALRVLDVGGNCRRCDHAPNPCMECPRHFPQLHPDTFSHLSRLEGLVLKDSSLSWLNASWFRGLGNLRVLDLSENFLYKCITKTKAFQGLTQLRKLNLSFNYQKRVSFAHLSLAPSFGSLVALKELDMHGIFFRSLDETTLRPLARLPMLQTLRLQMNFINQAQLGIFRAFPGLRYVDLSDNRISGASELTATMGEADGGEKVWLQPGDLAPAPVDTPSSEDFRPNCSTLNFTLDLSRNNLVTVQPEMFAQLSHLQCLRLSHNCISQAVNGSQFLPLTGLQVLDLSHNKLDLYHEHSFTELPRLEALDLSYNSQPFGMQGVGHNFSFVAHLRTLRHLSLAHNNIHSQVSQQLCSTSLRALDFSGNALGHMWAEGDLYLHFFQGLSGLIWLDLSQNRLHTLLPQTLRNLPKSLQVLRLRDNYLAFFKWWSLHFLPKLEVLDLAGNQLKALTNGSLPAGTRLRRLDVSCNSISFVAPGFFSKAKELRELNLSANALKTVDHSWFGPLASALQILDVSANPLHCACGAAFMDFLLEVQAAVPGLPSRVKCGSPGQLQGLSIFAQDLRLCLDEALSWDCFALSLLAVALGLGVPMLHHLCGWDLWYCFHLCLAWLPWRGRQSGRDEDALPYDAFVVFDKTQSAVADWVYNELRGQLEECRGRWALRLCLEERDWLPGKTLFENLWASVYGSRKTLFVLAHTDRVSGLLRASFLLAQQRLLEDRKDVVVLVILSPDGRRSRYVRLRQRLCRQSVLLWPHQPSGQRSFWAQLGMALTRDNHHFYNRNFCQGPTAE
How it was run: (§1)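 Human TLR7/8/9 HEK-Blue reporter lines; dose range 0.05 nM–50 μM; 30 min RT preincubation; stimulus gardiquimod 7.5 μM / R848 15.9 μM / ODN2006 5 nM respectively; 22 h, 37 °C; SEAP detected colorimetrically.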

human TLR7 = target: T2, human TLR7 (Homo sapiens, UniProt Q9NYK1); test: TLR7 inhibition reporter assay (HEK-Blue cells, SEAP reporter, gardiquimod stimulation); conditions: HEK-Blue cells overexpressing human TLR7, SEAP reporter, gardiquimod 7.5 μM; read-out: TLR7 IC50
T2 construct: host or cells: HEK-Blue cells
T2 sequence (Q9NYK1 27-1049): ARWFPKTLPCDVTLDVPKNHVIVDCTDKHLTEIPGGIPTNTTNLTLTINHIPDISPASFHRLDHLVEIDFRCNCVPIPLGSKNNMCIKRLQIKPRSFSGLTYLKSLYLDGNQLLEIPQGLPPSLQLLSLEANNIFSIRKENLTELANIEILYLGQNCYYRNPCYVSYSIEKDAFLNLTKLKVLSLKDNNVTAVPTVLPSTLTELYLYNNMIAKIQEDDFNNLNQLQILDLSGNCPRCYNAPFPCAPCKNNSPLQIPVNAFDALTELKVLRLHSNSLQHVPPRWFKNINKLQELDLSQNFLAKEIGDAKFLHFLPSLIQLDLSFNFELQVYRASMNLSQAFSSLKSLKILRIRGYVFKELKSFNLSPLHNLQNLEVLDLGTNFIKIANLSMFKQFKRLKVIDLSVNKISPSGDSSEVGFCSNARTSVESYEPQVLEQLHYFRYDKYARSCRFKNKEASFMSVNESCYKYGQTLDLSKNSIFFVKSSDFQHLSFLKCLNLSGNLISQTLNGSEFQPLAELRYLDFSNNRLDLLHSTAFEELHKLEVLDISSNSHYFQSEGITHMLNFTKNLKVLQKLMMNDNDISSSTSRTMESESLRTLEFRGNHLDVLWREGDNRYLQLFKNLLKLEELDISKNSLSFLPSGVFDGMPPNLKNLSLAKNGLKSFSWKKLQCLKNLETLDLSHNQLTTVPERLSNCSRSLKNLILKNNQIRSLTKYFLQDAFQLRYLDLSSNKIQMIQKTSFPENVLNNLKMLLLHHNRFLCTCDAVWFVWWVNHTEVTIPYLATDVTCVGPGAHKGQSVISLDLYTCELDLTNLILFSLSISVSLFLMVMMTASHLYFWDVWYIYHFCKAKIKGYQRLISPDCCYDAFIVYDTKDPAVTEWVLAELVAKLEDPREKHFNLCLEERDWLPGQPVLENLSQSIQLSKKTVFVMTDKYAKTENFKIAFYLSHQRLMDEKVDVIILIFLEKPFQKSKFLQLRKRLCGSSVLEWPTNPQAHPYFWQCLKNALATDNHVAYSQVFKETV
How it was run: as §1

human TLR8 = target: T3, human TLR8 (Homo sapiens, UniProt Q9NR97); test: TLR8 inhibition reporter assay (HEK-Blue cells, SEAP reporter, R848 stimulation); conditions: HEK-Blue cells overexpressing human TLR8, SEAP reporter, R848 15.9 μM; read-out: TLR8 IC50
T3 construct: host or cells: HEK-Blue cells
T3 sequence (Q9NR97 27-1041): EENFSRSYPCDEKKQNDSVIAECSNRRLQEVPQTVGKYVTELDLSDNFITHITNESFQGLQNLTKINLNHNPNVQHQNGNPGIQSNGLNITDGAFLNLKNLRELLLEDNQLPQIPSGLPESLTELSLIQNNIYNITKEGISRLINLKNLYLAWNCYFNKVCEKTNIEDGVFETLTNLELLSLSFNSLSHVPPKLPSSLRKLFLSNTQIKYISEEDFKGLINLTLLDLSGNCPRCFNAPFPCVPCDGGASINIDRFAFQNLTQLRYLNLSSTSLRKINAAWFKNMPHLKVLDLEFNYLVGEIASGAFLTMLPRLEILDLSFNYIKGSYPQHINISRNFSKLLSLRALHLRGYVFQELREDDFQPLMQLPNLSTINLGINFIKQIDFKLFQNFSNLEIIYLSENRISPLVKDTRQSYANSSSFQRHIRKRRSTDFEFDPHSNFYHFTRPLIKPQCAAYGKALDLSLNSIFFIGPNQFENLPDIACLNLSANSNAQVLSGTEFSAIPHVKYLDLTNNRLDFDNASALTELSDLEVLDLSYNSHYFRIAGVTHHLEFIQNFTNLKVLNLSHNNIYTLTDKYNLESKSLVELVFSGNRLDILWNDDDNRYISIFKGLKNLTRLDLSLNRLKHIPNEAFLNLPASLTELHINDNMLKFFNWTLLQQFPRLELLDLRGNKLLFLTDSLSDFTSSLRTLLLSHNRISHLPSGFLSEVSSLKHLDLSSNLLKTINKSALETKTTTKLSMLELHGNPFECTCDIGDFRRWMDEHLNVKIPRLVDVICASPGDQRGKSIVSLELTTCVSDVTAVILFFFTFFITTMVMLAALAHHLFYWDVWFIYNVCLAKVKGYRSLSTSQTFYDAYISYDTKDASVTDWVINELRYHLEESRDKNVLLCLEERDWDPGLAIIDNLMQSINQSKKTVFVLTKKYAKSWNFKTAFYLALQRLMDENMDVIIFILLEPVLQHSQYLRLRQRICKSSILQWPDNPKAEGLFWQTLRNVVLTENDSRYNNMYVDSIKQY
How it was run: as §1

| Compound | IC50 (human TLR9) [µM] | IC50 (human TLR7) [µM] | IC50 (human TLR8) [µM] |
| --- | --- | --- | --- |
| COc1cc(-c2[nH]c3sc(C4CCC(N(C)C(C)C)CC4)nc3c2C(C)C)cn2ncnc12 (single isomer, unassigned) [Example 89, N-isopropyl-4-(6-isopropyl-5-(8-methoxy-[1,2,4]triazolo[1,5-a]pyridin-6-yl)-4H-pyrrolo[3,2-d]thiazol-2-yl)-N-methylcyclohexan-1-amine] | 4.1 | 0.00148 | 0.0189 |
| CC(C)c1c(-c2cn(C)c3ncccc23)[nH]c2sc(C3CCC(NC45CC(C4)C5)CC3)nc12 (single isomer, unassigned) [Example 176, N-(4-(6-isopropyl-5-(1-methyl-1H-pyrrolo[2,3-b]pyridin-3-yl)-4H-pyrrolo[3,2-d]thiazol-2-yl)cyclohexyl)bicyclo[1.1.1]pentan-1-amine] | 9.58 | 0.0233 | 0.0237 |
| COc1cc(-c2[nH]c3sc(C4CCC(NC[C@@H](F)C(C)(C)O)CC4)nc3c2C(C)C)cn2ncnc12 (single isomer, unassigned) [Example 90] | 11.1 | 0.0008 | 0.00113 |
| Cc1cc(-c2[nH]c3sc(C4CCC(NC56CC(C5)C6)CC4)nc3c2C(C)C)cn2ncnc12 (single isomer, unassigned) [Example 139, N-(4-(6-isopropyl-5-(8-methyl-[1,2,4]triazolo[1,5-a]pyridin-6-yl)-4H-pyrrolo[3,2-d]thiazol-2-yl)cyclohexyl)bicyclo[1.1.1]pentan-1-amine] | 17.5 | 0.00496 | 0.0263 |
| Cc1c(-c2[nH]c3sc(C4CCC(N(C)CC(C)C)CC4)nc3c2C(C)C)cn2ncnc2c1C (single isomer, unassigned) [Example 229, 4-(5-(7,8-dimethyl-[1,2,4]triazolo[1,5-a]pyridin-6-yl)-6-isopropyl-4H-pyrrolo[3,2-d]thiazol-2-yl)-N-isobutyl-N-methylcyclohexan-1-amine] | 4.96 | 0.0071 | 0.00371 |
| COc1cc(-c2[nH]c3sc(C4CCC(NC(=O)CN(C)C)CC4)nc3c2C(C)C)cn2ncnc12 (stereo not drawn) [Example 126, 2-(dimethylamino)-N-(4-(6-isopropyl-5-(8-methoxy-[1,2,4]triazolo[1,5-a]pyridin-6-yl)-4H-pyrrolo[3,2-d]thiazol-2-yl)cyclohexyl)acetamide] | 13.2 | 0.00098 | 0.00683 |
| Cc1cc(-c2[nH]c3sc(C4CCN(C(=O)CN(C)C)CC4)nc3c2C(C)C)cc(C)n1 [Example 28, 2-(dimethylamino)-1-(4-(5-(2,6-dimethylpyridin-4-yl)-6-isopropyl-4H-pyrrolo[3,2-d]thiazol-2-yl)piperidin-1-yl)ethan-1-one] | 0.645 | 0.039 | 0.265 |

Next, values leading:

| IC50 (human TLR9) [µM] | IC50 (human TLR7) [µM] | IC50 (human TLR8) [µM] | Compound |
| --- | --- | --- | --- |
| 12.7 | 0.00142 | 0.00072 | Cc1c(-c2[nH]c3sc(N4CCC(N)CC4)nc3c2C(C)C)cn2ncnc2c1C [Example 299, 1-(5-(7,8-dimethyl-[1,2,4]triazolo[1,5-a]pyridin-6-yl)-6-isopropyl-4H-pyrrolo[3,2-d]thiazol-2-yl)piperidin-4-amine] |
| 46.9 | 0.018 | 0.033 | Cc1c(-c2[nH]c3sc(C(=O)NC4CCC(N(C)C)CC4)nc3c2C(C)C)cn2ncnc2c1C (single isomer, unassigned) [Example 369, 5-(7,8-dimethyl-[1,2,4]triazolo[1,5-a]pyridin-6-yl)-N-(4-(dimethylamino)cyclohexyl)-6-isopropyl-4H-pyrrolo[3,2-d]thiazole-2-carboxamide] |
| 29.8 | 0.0164 | 0.0021 | COC(C)(C)CNC1CCC(c2nc3c(C(C)C)c(-c4cn(C)c(=O)c(C)c4C)[nH]c3s2)CC1 (single isomer, unassigned) [Example 243, 5-(6-isopropyl-2-(4-((2-methoxy-2-methylpropyl)amino)cyclohexyl)-4H-pyrrolo[3,2-d]thiazol-5-yl)-1,3,4-trimethylpyridin-2(1H)-one] |
